Values belong to the compound of their own block, whether it stands above or below them.
Assay: Evaluation of solubility in organic solvents (visual observation of complete dissolution)
Format: physicochemical
Experimental: [Evaluation of Solubility]
The evaluation of the solubility of the synthesized compound was conducted by the following method.
About 2-3 mg of the compound was precisely weighed, and each solvent was added to the compound such that a predetermined concentration of the solute (0.5 wt %, 0.3 wt %, 0.2 wt %, 0.1 wt %, 0.05 wt %, or 0.03 wt %) was reached. The resultant mixture was stirred for 30 minutes at a predetermined temperature, and then it was evaluated by visual appearance observation whether or not the solute (synthesized compound) was completely dissolved in the solvent, which was the result of the evaluation of the solubility. As the solvent, chloroform (boiling point 61° C.), toluene (boiling point 111° C.), xylene (boiling point 144° C.), mesitylene (boiling point 165° C.), chlorobenzene (boiling point 130° C.), para-chlorotoluene (boiling point 162° C.), and ortho-dichlorobenzene (boiling point 181° C.) were used.

[1] = 1-methylnaphthalene, 25° C. (room temperature)
[2] = chloroform, 25° C. (room temperature)

SMILES: CCCCCCCCCCCCc1cc(-c2ccc(-c3c4c(c(-c5ccc(-c6ccc(C#N)c(CCCCCCCCCCCC)c6)s5)c5nsnc35)N=S=N4)s2)ccc1C#N [Compound (C17), 4,8-bis[5-(4-cyano-3-dodecylphenyl)thiophene-2-yl]benzo[1,2-c:4,5-c′]bis[1,2,5]thiadiazole]
- solubility (solute concentration completely dissolved) (chlorobenzene, 80° C.): ≥ 0.3 wt %
- solubility (solute concentration completely dissolved) (chloroform, 60° C.): ≥ 0.2 wt %
- solubility (solute concentration completely dissolved) (ortho-dichlorobenzene, 60° C.): ≥ 0.3 wt %
- solubility (solute concentration completely dissolved) (para-chlorotoluene, 80° C.): ≥ 0.3 wt %
- solubility (solute concentration completely dissolved) (xylene, 100° C.): ≥ 0.3 wt %

SMILES: FC(F)(F)Oc1cccc(-c2ccc(-c3c4c(c(-c5ccc(-c6cccc(OC(F)(F)F)c6)s5)c5nsnc35)N=S=N4)s2)c1 [Compound (C1), 4,8-bis[5-(3-(trifluoromethoxy)phenyl)thiophene-2-yl]benzo[1,2-c:4,5-c′]bis[1,2,5]thiadiazole]
- solubility (solute concentration completely dissolved) (mesitylene, 80° C.): ≥ 0.1 wt %
- solubility (solute concentration completely dissolved) (mesitylene, 130° C.): ≥ 0.3 wt %
- solubility (solute concentration completely dissolved) (toluene, 100° C.): ≥ 0.1 wt %

SMILES: CCCCCCCc1cc(-c2ccc(-c3c4c(c(-c5ccc(-c6ccc(C#N)c(CCCCCCC)c6)s5)c5nsnc35)N=S=N4)s2)ccc1C#N [Compound (C13), 4,8-bis[5-(4-cyano-3-heptylphenyl)thiophene-2-yl]benzo[1,2-c:4,5-c′]bis[1,2,5]thiadiazole]
- solubility (solute concentration completely dissolved) (chlorobenzene, 80° C.): ≥ 0.3 wt %
- solubility (solute concentration completely dissolved) [2]: ≥ 0.2 wt %
- solubility (solute concentration completely dissolved) (ortho-dichlorobenzene, 80° C.): ≥ 0.3 wt %
- solubility (solute concentration completely dissolved) (para-chlorotoluene, 80° C.): ≥ 0.3 wt %

The remaining lines, values ahead:

- solubility (solute concentration completely dissolved) (1-methylnaphthalene, 60° C.): ≥ 0.3 wt %
- solubility (solute concentration completely dissolved) (chloroform, 60° C.): ≥ 0.2 wt %
- solubility (solute concentration completely dissolved) (mesitylene, 60° C.): ≥ 0.3 wt %
- solubility (solute concentration completely dissolved) (ortho-dichlorobenzene, 60° C.): ≥ 0.3 wt %
- solubility (solute concentration completely dissolved) (toluene, 60° C.): ≥ 0.3 wt %
SMILES: CCCCCCCCc1cc(-c2ccc(-c3c4c(c(-c5ccc(-c6ccc(C(F)(F)F)c(CCCCCCCC)c6)s5)c5nsnc35)N=S=N4)s2)ccc1C(F)(F)F [Compound (C24), 4,8-bis[5-(3-octyl-4-(trifluoromethyl)phenyl)thiophene-2-yl]benzo[1,2-c:4,5-c′]bis[1,2,5]thiadiazole]

- solubility (solute concentration completely dissolved) [1]: ≥ 0.3 wt %
- solubility (solute concentration completely dissolved) (chlorobenzene, 80° C.): ≥ 0.3 wt %
- solubility (solute concentration completely dissolved) (chloroform, 60° C.): ≥ 0.2 wt %
- solubility (solute concentration completely dissolved) (ortho-dichlorobenzene, 80° C.): ≥ 0.3 wt %
SMILES: CCCCCCCCCCCCCCCCc1cc(-c2ccc(-c3c4c(c(-c5ccc(-c6ccc(C#N)c(CCCCCCCCCCCCCCCC)c6)s5)c5nsnc35)N=S=N4)s2)ccc1C#N [Compound (C19), 4,8-bis[5-(4-cyano-3-hexadecylphenyl)thiophene-2-yl]benzo[1,2-c:4,5-c′]bis[1,2,5]thiadiazole]

- solubility (solute concentration completely dissolved) [1]: ≥ 0.3 wt %
- solubility (solute concentration completely dissolved) [2]: ≥ 0.2 wt %
- solubility (solute concentration completely dissolved) (mesitylene, 25° C.): ≥ 0.3 wt %
- solubility (solute concentration completely dissolved) (ortho-dichlorobenzene, 25° C.): ≥ 0.3 wt %
- solubility (solute concentration completely dissolved) (toluene, 25° C.): ≥ 0.3 wt %
SMILES: CCCCC(CC)Cc1ccc(-c2ccc(-c3c4c(c(-c5ccc(-c6ccc(CC(CC)CCCC)c(C(F)(F)F)c6)s5)c5nsnc35)N=S=N4)s2)cc1C(F)(F)F (stereo not drawn) [Compound (C31)]

- solubility (solute concentration completely dissolved) (1-methylnaphthalene, 80° C.): ≥ 0.3 wt %
- solubility (solute concentration completely dissolved) (chlorobenzene, 80° C.): ≥ 0.3 wt %
- solubility (solute concentration completely dissolved) (chloroform, 60° C.): ≥ 0.2 wt %
- solubility (solute concentration completely dissolved) (ortho-dichlorobenzene, 80° C.): ≥ 0.3 wt %
SMILES: CCCC(C)CCc1cc(-c2ccc(-c3c4c(c(-c5ccc(-c6ccc(C#N)c(CCC(C)CCC)c6)s5)c5nsnc35)N=S=N4)s2)ccc1C#N (stereo not drawn) [Compound (C21), 4,8-bis[5-(4-cyano-3-(3-methylhexyl)phenyl)thiophene-2-yl]benzo[1,2-c:4,5-c′]bis[1,2,5]thiadiazole]
